Test results published in patent US9056874B2, “Complement pathway modulators and uses thereof” (NOVARTIS AG, priority 2012, dated 2015).

Tests used:
[1] = target: T1, factor B (Homo sapiens, UniProt P00751); assay: assay of Biological Example 2.7; format: binding; parameters: made in house; host or cells: drosophila cells; settings: assay of Biological Example 2.7 (Table 2)
Target sequence in this assay (P00751 26-764): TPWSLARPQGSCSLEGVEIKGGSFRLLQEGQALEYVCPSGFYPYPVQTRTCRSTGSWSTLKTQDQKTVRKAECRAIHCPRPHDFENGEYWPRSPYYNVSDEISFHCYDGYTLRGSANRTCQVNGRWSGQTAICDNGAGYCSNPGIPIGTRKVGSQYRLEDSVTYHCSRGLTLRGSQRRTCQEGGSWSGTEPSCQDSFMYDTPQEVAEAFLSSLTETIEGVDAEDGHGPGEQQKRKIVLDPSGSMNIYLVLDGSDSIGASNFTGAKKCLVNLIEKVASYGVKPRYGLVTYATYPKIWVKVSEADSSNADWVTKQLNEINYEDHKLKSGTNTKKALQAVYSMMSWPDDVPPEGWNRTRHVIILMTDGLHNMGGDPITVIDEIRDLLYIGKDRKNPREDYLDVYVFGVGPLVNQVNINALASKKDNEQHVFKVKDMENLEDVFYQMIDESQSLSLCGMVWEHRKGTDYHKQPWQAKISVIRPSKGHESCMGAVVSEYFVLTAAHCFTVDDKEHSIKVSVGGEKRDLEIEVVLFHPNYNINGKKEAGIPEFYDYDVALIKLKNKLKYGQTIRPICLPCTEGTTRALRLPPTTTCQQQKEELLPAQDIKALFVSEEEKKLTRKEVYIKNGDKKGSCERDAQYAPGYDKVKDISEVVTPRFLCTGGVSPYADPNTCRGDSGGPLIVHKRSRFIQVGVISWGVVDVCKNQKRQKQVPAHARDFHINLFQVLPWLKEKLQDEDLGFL

[2] = target: T1, factor B; assay: factor B inhibition assay of Biological Example 1; format: biochemical; parameters: CVF-Bb complex prepared from purified cobra venom factor (1 μM), recombinant human complement factor B; made in house; host or cells: drosophila cells (factor B); E. coli (factor D used to form the complex); settings: IC50 (nM), assay of Biological Example 1 (Table 1)
Target sequence in this assay (P00751 260-764 limits assumed): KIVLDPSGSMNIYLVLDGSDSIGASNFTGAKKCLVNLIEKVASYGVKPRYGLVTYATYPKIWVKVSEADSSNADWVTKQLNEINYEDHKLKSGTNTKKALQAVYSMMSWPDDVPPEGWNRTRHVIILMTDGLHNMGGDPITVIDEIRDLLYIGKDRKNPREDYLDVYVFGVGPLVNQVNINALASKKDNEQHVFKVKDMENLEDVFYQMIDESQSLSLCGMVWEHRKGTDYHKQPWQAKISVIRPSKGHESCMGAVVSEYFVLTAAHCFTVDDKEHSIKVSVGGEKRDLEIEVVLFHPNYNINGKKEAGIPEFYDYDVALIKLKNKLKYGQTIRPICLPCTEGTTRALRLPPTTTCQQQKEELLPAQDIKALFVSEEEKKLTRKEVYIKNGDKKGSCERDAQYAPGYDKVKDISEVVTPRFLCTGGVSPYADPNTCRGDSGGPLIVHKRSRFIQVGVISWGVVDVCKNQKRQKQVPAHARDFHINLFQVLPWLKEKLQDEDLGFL
Target sequence in this assay (Q91132 23-649 partner limits assumed): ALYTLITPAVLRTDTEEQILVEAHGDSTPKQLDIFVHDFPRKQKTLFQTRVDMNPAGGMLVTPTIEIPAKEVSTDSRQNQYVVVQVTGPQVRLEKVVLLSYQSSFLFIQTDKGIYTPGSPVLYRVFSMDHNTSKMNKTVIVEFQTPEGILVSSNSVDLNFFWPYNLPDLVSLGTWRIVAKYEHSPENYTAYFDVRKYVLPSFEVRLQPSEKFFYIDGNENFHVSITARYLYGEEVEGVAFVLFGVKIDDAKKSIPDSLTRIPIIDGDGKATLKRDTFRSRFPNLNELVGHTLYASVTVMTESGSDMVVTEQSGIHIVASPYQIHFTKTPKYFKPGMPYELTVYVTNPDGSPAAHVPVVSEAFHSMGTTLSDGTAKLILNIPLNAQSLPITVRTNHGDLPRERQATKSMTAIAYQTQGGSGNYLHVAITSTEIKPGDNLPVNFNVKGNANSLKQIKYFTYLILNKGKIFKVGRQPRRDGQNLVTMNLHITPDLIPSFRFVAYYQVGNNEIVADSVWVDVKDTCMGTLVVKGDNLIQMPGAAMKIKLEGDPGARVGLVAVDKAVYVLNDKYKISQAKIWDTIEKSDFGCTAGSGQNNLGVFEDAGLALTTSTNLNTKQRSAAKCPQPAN
Target sequence in this assay (Q91132 733-984 partner limits assumed): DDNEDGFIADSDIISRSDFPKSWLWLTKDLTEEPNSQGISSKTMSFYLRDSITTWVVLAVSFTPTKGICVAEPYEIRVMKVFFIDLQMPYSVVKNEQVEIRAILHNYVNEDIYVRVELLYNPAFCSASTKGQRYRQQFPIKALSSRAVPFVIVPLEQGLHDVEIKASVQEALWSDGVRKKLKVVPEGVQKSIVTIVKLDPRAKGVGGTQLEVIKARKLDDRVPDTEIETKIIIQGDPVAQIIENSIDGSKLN
Target sequence in this assay (Q91132 1264-1642 partner limits assumed): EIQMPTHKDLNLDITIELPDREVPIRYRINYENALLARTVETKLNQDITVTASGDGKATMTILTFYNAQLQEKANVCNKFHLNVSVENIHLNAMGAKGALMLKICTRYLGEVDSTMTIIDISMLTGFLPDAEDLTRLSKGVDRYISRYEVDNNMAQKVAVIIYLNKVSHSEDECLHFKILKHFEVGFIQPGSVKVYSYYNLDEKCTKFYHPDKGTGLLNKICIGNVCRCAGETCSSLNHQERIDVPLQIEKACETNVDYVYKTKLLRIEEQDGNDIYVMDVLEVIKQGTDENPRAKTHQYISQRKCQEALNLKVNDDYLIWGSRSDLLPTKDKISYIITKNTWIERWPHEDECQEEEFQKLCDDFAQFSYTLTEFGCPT

| SMILES | IC50 [1] | IC50 [2] |
| --- | --- | --- |
| COc1cc(C)c2[nH]ccc2c1C(N)(c1nc2cc(C#N)ccc2[nH]1)C(F)(F)F (racemic) [36-E b) (−), (−)-2-(1-amino-2,2,2-trifluoro-1-(5-methoxy-7-methyl-1H-indol-4-yl)ethyl)-1H-benzo[d]imidazole-5-carbonitrile] | 30 nM | 40 nM |
| COc1cc(C)c2[nH]ccc2c1C(C)(OC)c1nc2cc(C#N)ccc2[nH]1 (single isomer, unassigned; (-)) [27-B b) (−), (−)-2-(1-methoxy-1-(5-methoxy-7-methyl-1H-indol-4-yl)ethyl)-1H-benzo[d]imidazole-5-carbonitrile] | 4 nM | 3 nM |
| COc1cc(C)c2[nH]ccc2c1C(C)(N)c1nc2cc(C#N)ccc2[nH]1 (single isomer, unassigned; (-)) [41-B b) (−), (−)-2-(1-amino-1-(5-methoxy-7-methyl-1H-indol-4-yl)ethyl)-1H-benzo[d]imidazole-5-carbonitrile] | 10 nM | 9 nM |
| CCOC(=O)COC(c1nc2cc(C#N)ccc2[nH]1)(c1c(OC)cc(C)c2[nH]ccc12)C(F)(F)F (single isomer, unassigned) [Example 35-D, (+) or (−)-Ethyl 2-(1-(5-cyano-1H-benzo[d]imidazol-2-yl)-2,2,2-trifluoro-1-(5-methoxy-7-methyl-1H-indol-4-yl)ethoxy)acetate] | 24 nM | – |
| COC(=O)CC(C)(c1nc2cc(C#N)ccc2[nH]1)c1c(OC)cc(C)c2c1CCN2 (racemic) [Example 156-K, (±)-Methyl 3-(5-cyano-1H-benzo[d]imidazol-2-yl)-3-(5-methoxy-7-methylindolin-4-yl)butanoate] | 130 nM | – |
| COC(C)(c1nc2cc(C#N)ccc2o1)c1c(C2CC2)cc(C)c2[nH]ccc12 (single isomer, unassigned; (-)) [137-L b) (−), (−)-2-(1-(5-cyclopropyl-7-methyl-1H-indol-4-yl)-1-methoxyethyl)benzo[d]oxazole-5-carbonitrile] | 270 nM | – |
| COc1cc(C)c2[nH]ccc2c1C(Cc1nn[nH]n1)c1nc2cc(C#N)ccc2o1 (racemic) [Example 153, (±)-2-(1-(5-Methoxy-7-methyl-1H-indol-4-yl)-2-(2H-tetrazol-5-yl)ethyl)benzo[d]oxazole-5-carbonitrile] | 1110 nM | – |
